In patent US8158158B2, “Composite biocidal particles” (Arch Chemicals, Inc., priority 1998, dated 2012):
Like-named read-outs stand apart in the source and are kept apart here.

Legend:
[1] = tested on: hard and soft fouling; experiment: Antifouling efficacy of paint on fiberglass panels submerged in seawater; assay type: in vivo; conditions: single biocide, explanatory statement
Experimental: The antifouling efficacy of the composition of Example 1 was evaluated by mixing […] of it into 90 grams of a paint base. The commercial paint comprised:
This paint was painted onto fiberglass panels (8″×10″) and (12″×6″), which were then submerged in seawater for eight months (and running) in Miami, Fla.

[2] = cited from earlier work; for solubility: background statement

Molecule: On1ccccc1=S.On1ccccc1=S.[Cu] [Copper pyrithione, copper pyrithione]
- efficacy against algae [1]: most effective against algae
- solubility [2]: about 1 ppm
- water solubility ([2]; in seawater): less than 1 ppm

Molecule: [Cu].[O]=[Cu] [cuprous oxide]
- efficacy against algae [1]: relatively ineffective against algae
- resistance to barnacle formation [1]: strongly resisting barnacle formation

Molecule: [Na+].[O-][n+]1ccccc1[S-] [sodium salt of pyrithione, sodium pyrithione]
- water solubility ([2]; water): about 53 % by weight

Molecule: zinc pyrithione
- solubility [2]: 6-10 ppm
- water solubility ([2]; water): 6-10 ppm
